The term EC50 denotes the concentration giving half of the maximal effect. For orientation: Cmax means the highest concentration seen after dosing. Broadly, the MRT inf is a mean duration of stay, worked out from the concentration-time curve. By Tmax is commonly meant the time at which the peak concentration occurs. One may read the AUC(0-inf) as the area under the concentration-time curve extrapolated to infinity. High values mean high exposure, low ones low exposure.

The source of these data is ChEMBL document CHEMBL4219241, “Design, synthesis, and structure-activity relationships of novel imidazo[4,5-c]pyridine derivatives as potent non-nucleoside inhibitors of hepatitis C virus NS5B” (Bioorg Med Chem, 2018).

The target of series [1] is T1, RNA-directed RNA polymerase (Hepacivirus hominis, UniProt O39930). Nature of the series: Inhibition of Hepatitis C virus genotype 1b NS5B RNA-dependent-RNA polymerase assessed as reduction in viral replication after 72 hrs by indirect immunofluorescence assay. On the set-up: species or system Hepatitis C virus subtype 1b.
T1 sequence (O39930 whole entry): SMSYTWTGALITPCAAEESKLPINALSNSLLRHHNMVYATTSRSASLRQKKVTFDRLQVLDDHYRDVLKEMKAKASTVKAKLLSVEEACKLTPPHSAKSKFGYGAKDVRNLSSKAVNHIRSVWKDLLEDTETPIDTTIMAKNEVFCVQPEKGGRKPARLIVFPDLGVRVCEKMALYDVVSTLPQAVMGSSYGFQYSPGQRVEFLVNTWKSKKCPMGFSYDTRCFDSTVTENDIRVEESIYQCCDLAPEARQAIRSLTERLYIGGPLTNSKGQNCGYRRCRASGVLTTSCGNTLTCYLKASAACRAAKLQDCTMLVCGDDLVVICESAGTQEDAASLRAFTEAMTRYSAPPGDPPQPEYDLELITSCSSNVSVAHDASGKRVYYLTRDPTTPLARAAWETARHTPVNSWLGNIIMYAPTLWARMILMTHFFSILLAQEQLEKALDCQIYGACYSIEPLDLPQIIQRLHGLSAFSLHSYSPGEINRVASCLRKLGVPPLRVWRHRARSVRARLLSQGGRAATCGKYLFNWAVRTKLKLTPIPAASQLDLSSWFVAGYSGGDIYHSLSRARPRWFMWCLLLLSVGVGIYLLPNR
The target in series [2] is RNA-directed RNA polymerase (Hepacivirus hominis) (UniProt O39930). Description: Potency index, ratio of sofosbuvir EC50 to test compound EC50 for inhibition of Hepatitis C virus genotype 1b NS5B RNA-dependent-RNA polymerase assessed as reduction in viral replication. Conditions: Hepatitis C virus subtype 1b; call rule not given here.
Sequence of RNA-directed RNA polymerase (Hepacivirus hominis) (O39930 1-591): as the sequence (O39930 whole entry) above
For series [3], the target named is T1, RNA-directed RNA polymerase. Nature of the series: Inhibition of Hepatitis C virus genotype 1b NS5B RNA-dependent-RNA polymerase. On the set-up: species or system Hepatitis C virus subtype 1b.
Series [4] can be described thus: Apparent volume of distribution during terminal phase in Sprague-Dawley rat at 35 mg/kg, po administered via gavage by UPLC-MS analysis. Conditions: in vivo, read-out: Vz/F. Format: ADME, organism-based.
Series [5] in a line: Terminal half life in Sprague-Dawley rat at 35 mg/kg, po administered via gavage by UPLC-MS analysis. Format: ADME, organism-based. Conditions: in vivo, read-out: beta t1/2 (converted).
The nature of series [6]: Apparent clearance during terminal phase in Sprague-Dawley rat at 35 mg/kg, po administered via gavage by UPLC-MS analysis. Format: ADME, organism-based. Conditions: in vivo, read-out: CLz/F (converted).
Series [7] is described as follows: Cmax in Sprague-Dawley rat at 35 mg/kg, po administered via gavage by UPLC-MS analysis. Details: dose 35 mg/kg, route oral. Conditions: in vivo. Format: ADME, organism-based.
Series [8] is described as follows: MRT (0 to infinity) in Sprague-Dawley rat at 35 mg/kg, po administered via gavage by UPLC-MS analysis. Format: ADME, organism-based. Conditions: in vivo.
Series [9] in a line: Tmax in Sprague-Dawley rat at 35 mg/kg, po administered via gavage by UPLC-MS analysis. Format: ADME, organism-based. Conditions: in vivo.
Series [10] can be described thus: AUC (0 to infinity) in Sprague-Dawley rat at 35 mg/kg, po administered via gavage by UPLC-MS analysis. Conditions: in vivo. Format: ADME, organism-based. Details: dose 35 mg/kg, route oral, time infinity.

For the molecule `Fc1ccccc1-c1nc2ccn(Cc3cn(Cc4nc5ccccc5n4-c4ccccc4)nn3)cc-2n1`, the EC50 entry in series [1] is given as “Not Active”. As for `Cc1cc(C)n2nc(Cn3ccc4nc(-c5ccccc5F)nc-4c3)nc2n1`, the EC50 result in series [1] is on record as “Not Active”. On the same count and under the same terms, the value for `Fc1ccccc1-c1nc2ccn(Cc3cn(-c4cc(C(F)(F)F)cc(C(F)(F)F)c4)nn3)cc-2n1` was “Not Active”; that for `Fc1ccccc1-c1nc2ccn(Cc3nc4ccccc4n3-c3cccc(C(F)(F)F)c3)cc-2n1` was “Not Active”; that for `Fc1ccccc1-c1nc2ccn(Cc3cn(Cc4nc5ccccc5n4-c4cccc(C(F)(F)F)c4)nn3)cc-2n1` was “Not Active”. Consider `Fc1ccccc1-c1nc2ccn(Cc3cn(-c4ccccc4)nn3)cc-2n1`, for which the Ratio EC50 in [2] amounted to 3. Turning to `Fc1ccccc1-c1nc2ccn(Cc3nc4ccccc4n3-c3ccccc3)cc-2n1`, the EC50 result in [1] is given as “Not Active”.

On to `Cc1ccc(-n2c(Cn3ccc4nc(-c5ccccc5F)nc-4c3)nc3ccccc32)cc1`, for which the EC50 entry in series [1] is given as “Not Active”. Take `Fc1ccccc1-c1nc2ccn(Cc3nc4ccccc4n3-c3cccc(Cl)c3)cc-2n1`: in series [1], the EC50 entry was “Not Active”. `Fc1ccccc1-c1nc2ccn(Cc3ccc(-c4ccc(C(F)(F)F)cc4C(F)(F)F)nn3)cc-2n1` [TEGOBUVIR] displayed an EC50 in series [3] of 2.9 nM. Regarding `Cc1cc(C)n2cc(Cn3ccc4nc(-c5ccccc5F)nc-4c3)nc2n1`, the EC50 result in series [1] is recorded as “Not Active”.

In the case of `Fc1ccccc1-c1nc2ccn(Cc3cn4cccnc4n3)cc-2n1`, in [1], the EC50 entry is reported as “Not Active”.

For `COc1ccc(-n2cc(Cn3ccc4nc(-c5ccccc5F)nc-4c3)nn2)cc1`, the Vd/F in series [4] was determined as 2.12 L/kg. In addition, the half-life in series [5] is 2.88 h. For the same molecule, the CL/F in series [6] was 0.5 L/h/kg. Moreover, the Cmax in series [7] was 22.3 µg/mL. In series [8], this molecule displayed an MRT inf of 2.18 h. Moreover, the Tmax in series [9] is 1.33 h. This molecule showed an AUC(0-inf) in series [10] of 72.5 µg·h/mL.
